In brackets after ≈: the same amount, converted by molar mass.
Experiments:
Escherichia coli [1] = assay: Antibacterial activity against Escherichia coli isolate 24 assessed as residual bacterial survival at 50 mg/L after 24 hrs by twofold serial dilution method; format: functional; conditions: isolate 24, 24 h
Escherichia coli [2] = assay: Antibacterial activity against Escherichia coli isolate 9 expressing qnr B19 gene, GyrA D87G mutant assessed as residual bacterial survival at 50 mg/L after 24 hrs by twofold serial dilution method; format: functional; conditions: isolate 9, 24 h
Escherichia coli [3] = assay: Antibacterial activity against Escherichia coli isolate 191 expressing qnr S1 gene assessed as residual bacterial survival at 50 mg/L after 24 hrs by twofold serial dilution method; format: functional; conditions: isolate 191, 24 h
Escherichia coli [4] = assay: Antibacterial activity against Escherichia coli isolate 50 expressing qnr B19 gene assessed as residual bacterial survival at 50 mg/L after 24 hrs by twofold serial dilution method; format: functional; conditions: isolate 50, 24 h
Escherichia coli [5] = assay: Antibacterial activity against Escherichia coli isolate 47 expressing qnr B19 gene assessed as residual bacterial survival at 50 mg/L after 24 hrs by twofold serial dilution method; format: functional; conditions: isolate 47, 24 h
Klebsiella pneumoniae [6] = assay: Antibacterial activity against Klebsiella pneumoniae isolate 173 assessed as residual bacterial survival at 50 mg/L after 24 hrs by twofold serial dilution method; format: functional; conditions: isolate 173, 24 h
Klebsiella pneumoniae [7] = assay: Antibacterial activity against Klebsiella pneumoniae isolate 91 assessed as residual bacterial survival at 50 mg/L after 24 hrs by twofold serial dilution method; format: functional; conditions: isolate 91, 24 h
Klebsiella pneumoniae [8] = assay: Antibacterial activity against Klebsiella pneumoniae isolate 134 assessed as residual bacterial survival at 50 mg/L after 24 hrs by twofold serial dilution method; format: functional; conditions: isolate 134, 24 h
Klebsiella pneumoniae [9] = assay: Antibacterial activity against Klebsiella pneumoniae isolate 92 assessed as residual bacterial survival at 50 mg/L after 24 hrs by twofold serial dilution method; format: functional; conditions: isolate 92, 24 h
Klebsiella pneumoniae [10] = assay: Antibacterial activity against Klebsiella pneumoniae isolate 370 expressing qnr B19 gene, GyrA D87G mutant assessed as residual bacterial survival at 50 mg/L after 24 hrs by twofold serial dilution method; format: functional; conditions: isolate 370, 24 h
Klebsiella pneumoniae [11] = assay: Antibacterial activity against Klebsiella pneumoniae isolate 328 expressing qnr B19 gene, GyrA D87G mutant assessed as residual bacterial survival at 50 mg/L after 24 hrs by twofold serial dilution method; format: functional; conditions: isolate 328, 24 h
Klebsiella pneumoniae [12] = assay: Antibacterial activity against Klebsiella pneumoniae isolate 16 expressing qnr B19 gene, GyrA D87G mutant assessed as residual bacterial survival at 50 mg/L after 24 hrs by twofold serial dilution method; format: functional; conditions: isolate 16, 24 h
Klebsiella pneumoniae [13] = assay: Antibacterial activity against Klebsiella pneumoniae isolate 204 expressing qnr B19 gene assessed as residual bacterial survival at 50 mg/L after 24 hrs by twofold serial dilution method; format: functional; conditions: isolate 204, 24 h
Klebsiella pneumoniae [14] = assay: Antibacterial activity against Klebsiella pneumoniae isolate 172 expressing qnr B19 gene, GyrA D87G mutant assessed as residual bacterial survival at 50 mg/L after 24 hrs by twofold serial dilution method; format: functional; conditions: isolate 172, 24 h
Klebsiella pneumoniae [15] = assay: Antibacterial activity against Klebsiella pneumoniae isolate 110 expressing qnr B19 gene, GyrA D87G mutant assessed as residual bacterial survival at 50 mg/L after 24 hrs by twofold serial dilution method; format: functional; conditions: isolate 110, 24 h
Klebsiella pneumoniae [16] = assay: Antibacterial activity against Klebsiella pneumoniae isolate 97 expressing qnr B19 gene assessed as residual bacterial survival at 50 mg/L after 24 hrs by twofold serial dilution method; format: functional; conditions: isolate 97, 24 h
Klebsiella pneumoniae [17] = assay: Antibacterial activity against Klebsiella pneumoniae isolate 5 expressing qnr B19 gene, GyrA D87G mutant assessed as residual bacterial survival at 50 mg/L after 24 hrs by twofold serial dilution method; format: functional; conditions: isolate 5, 24 h
Klebsiella pneumoniae [18] = assay: Antimicrobial activity against Klebsiella pneumoniae isolate 97 assessed drug uptake; format: functional, organism-based
Klebsiella pneumoniae [19] = assay: Antimicrobial activity against Klebsiella pneumoniae isolate 92 assessed as drug uptake; format: functional, organism-based
Escherichia coli [20] = assay: Antibacterial activity against Escherichia coli isolate 50 assessed as drug uptake; format: functional, organism-based
Escherichia coli [21] = assay: Antibacterial activity against Escherichia coli isolate 24 assessed as drug uptake; format: functional, organism-based
Escherichia coli [22] = assay: Antibacterial activity against Escherichia coli Top10 assessed as drug uptake; format: functional, organism-based
Klebsiella pneumoniae [23] = assay: Antibacterial activity against Klebsiella pneumoniae isolate 97 assessed as drug uptake relative to total amount drug treated; format: functional, organism-based
Klebsiella pneumoniae [24] = assay: Antibacterial activity against Klebsiella pneumoniae isolate 92 assessed as drug uptake relative to total amount drug treated; format: functional, organism-based
Escherichia coli [25] = assay: Antibacterial activity against Escherichia coli isolate 50 assessed as drug uptake relative to total amount drug treated; format: functional, organism-based
Escherichia coli [26] = assay: Antibacterial activity against Escherichia coli isolate 24 assessed as drug uptake relative to total amount drug treated; format: functional, organism-based
Klebsiella pneumoniae [27] = assay: Antibacterial activity against Klebsiella pneumoniae isolate 204 expressing qnr B19 gene after 24 hrs by twofold serial dilution method; format: functional
Escherichia coli [28] = assay: Antibacterial activity against Escherichia coli Top10 assessed as drug uptake relative to total amount drug treated; format: functional, organism-based
Escherichia coli [29] = assay: Antibacterial activity against Escherichia coli isolate 32 after 24 hrs by twofold serial dilution method; format: functional
Escherichia coli [30] = assay: Antibacterial activity against Escherichia coli isolate 21 after 24 hrs by twofold serial dilution method; format: functional
Escherichia coli [31] = assay: Antibacterial activity against Escherichia coli isolate 13 after 24 hrs by twofold serial dilution method; format: functional
Escherichia coli [32] = assay: Antibacterial activity against Escherichia coli isolate 7 after 24 hrs by twofold serial dilution method; format: functional
Escherichia coli [33] = assay: Antibacterial activity against Escherichia coli Top10 after 24 hrs by twofold serial dilution method; format: functional
Escherichia coli [34] = assay: Antibacterial activity against Escherichia coli HB101 after 24 hrs by twofold serial dilution method; format: functional
Escherichia coli [35] = assay: Antibacterial activity against Escherichia coli JM109 after 24 hrs by twofold serial dilution method; format: functional
Escherichia coli [36] = assay: Antibacterial activity against Escherichia coli JM110 after 24 hrs by twofold serial dilution method; format: functional
Escherichia coli [37] = assay: Antibacterial activity against Escherichia coli XL-1Blue after 24 hrs by twofold serial dilution method; format: functional
Staphylococcus aureus [38] = assay: Antibacterial activity against Staphylococcus aureus after 24 hrs by twofold serial dilution method; format: functional
Staphylococcus aureus [39] = assay: Antibacterial activity against Staphylococcus aureus assessed as residual bacterial survival at 50 mg/L after 24 hrs by twofold serial dilution method; format: functional
Escherichia coli [40] = assay: Antibacterial activity against Escherichia coli XL-1Blue assessed as residual bacterial survival at 50 mg/L after 24 hrs by twofold serial dilution method; format: functional
Escherichia coli [41] = assay: Antibacterial activity against Escherichia coli JM110 assessed as residual bacterial survival at 50 mg/L after 24 hrs by twofold serial dilution method; format: functional; conditions: JM110, 24 h
Escherichia coli [42] = assay: Antibacterial activity against Escherichia coli JM109 assessed as residual bacterial survival at 50 mg/L after 24 hrs by twofold serial dilution method; format: functional; conditions: JM109, JM 109, 24 h
Escherichia coli [43] = assay: Antibacterial activity against Escherichia coli HB101 assessed as residual bacterial survival at 50 mg/L after 24 hrs by twofold serial dilution method; format: functional; conditions: HB101, 24 h
Escherichia coli [44] = assay: Antibacterial activity against Escherichia coli Top10 assessed as residual bacterial survival at 50 mg/L after 24 hrs by twofold serial dilution method; format: functional; conditions: Top10, 24 h
Escherichia coli [45] = assay: Antibacterial activity against Escherichia coli isolate 7 assessed as residual bacterial survival at 50 mg/L after 24 hrs by twofold serial dilution method; format: functional; conditions: isolate 7, 24 h
Escherichia coli [46] = assay: Antibacterial activity against Escherichia coli isolate 13 assessed as residual bacterial survival at 50 mg/L after 24 hrs by twofold serial dilution method; format: functional; conditions: isolate 13, 24 h
Escherichia coli [47] = assay: Antibacterial activity against Escherichia coli isolate 21 assessed as residual bacterial survival at 50 mg/L after 24 hrs by twofold serial dilution method; format: functional; conditions: isolate 21, 24 h
Escherichia coli [48] = assay: Antibacterial activity against Escherichia coli isolate 32 assessed as residual bacterial survival at 50 mg/L after 24 hrs by twofold serial dilution method; format: functional; conditions: isolate 32, 24 h
Escherichia coli [49] = assay: Antibacterial activity against Escherichia coli isolate 95 expressing GyrA S83L mutant assessed as residual bacterial survival at 50 mg/L after 24 hrs by twofold serial dilution method; format: functional; conditions: isolate 95, 24 h
Escherichia coli [50] = assay: Antibacterial activity against Escherichia coli isolate 115 expressing GyrA S83L mutant assessed as residual bacterial survival at 50 mg/L after 24 hrs by twofold serial dilution method; format: functional; conditions: isolate 115, 24 h
Escherichia coli [51] = assay: Antibacterial activity against Escherichia coli isolate 85 expressing GyrA S83L mutant assessed as residual bacterial survival at 50 mg/L after 24 hrs by twofold serial dilution method; format: functional; conditions: isolate 85, 24 h
Escherichia coli [52] = assay: Antibacterial activity against Escherichia coli isolate 41 assessed as residual bacterial survival at 50 mg/L after 24 hrs by twofold serial dilution method; format: functional; conditions: isolate 41, 24 h
Klebsiella pneumoniae [53] = assay: Antibacterial activity against Klebsiella pneumoniae isolate 97 expressing qnr B19 gene after 24 hrs by twofold serial dilution method; format: functional
Escherichia coli [54] = assay: Antibacterial activity against Escherichia coli isolate 24 after 24 hrs by twofold serial dilution method; format: functional
Escherichia coli [55] = assay: Antibacterial activity against Escherichia coli isolate 41 after 24 hrs by twofold serial dilution method; format: functional
Escherichia coli [56] = assay: Antibacterial activity against Escherichia coli isolate 191 expressing qnr S1 gene after 24 hrs by twofold serial dilution method; format: functional
Escherichia coli [57] = assay: Antibacterial activity against Escherichia coli isolate 50 expressing qnr B19 gene after 24 hrs by twofold serial dilution method; format: functional
Escherichia coli [58] = assay: Antibacterial activity against Escherichia coli isolate 47 expressing qnr B19 gene after 24 hrs by twofold serial dilution method; format: functional
Klebsiella pneumoniae [59] = assay: Antibacterial activity against Klebsiella pneumoniae isolate 173 after 24 hrs by twofold serial dilution method; format: functional
Klebsiella pneumoniae [60] = assay: Antibacterial activity against Klebsiella pneumoniae isolate 91 after 24 hrs by twofold serial dilution method; format: functional
Klebsiella pneumoniae [61] = assay: Antibacterial activity against Klebsiella pneumoniae isolate 134 after 24 hrs by twofold serial dilution method; format: functional
Klebsiella pneumoniae [62] = assay: Antibacterial activity against Klebsiella pneumoniae isolate 92 after 24 hrs by twofold serial dilution method; format: functional

CC(=O)O[C@@H]1[C@@H](C)O[C@@H](c2ccc3c(c2O)[C@@H](O)[C@]24O[C@@]2(C3=O)[C@@]2(O)C(=O)C=C(C)C[C@@]2(O)C[C@@H]4O)C[C@H]1OC(=O)/C=C/C=C/C=C/C=C/C(=O)Nc1c(O)c2ccc(O)c(Cl)c2oc1=O [SIMOCYCLINONE D8]
survival at 50 µg/mL (Escherichia coli [1]): 21%
survival at 50 µg/mL (Escherichia coli [2]): > 90%
survival at 50 µg/mL (Escherichia coli [3]): 56%
survival at 50 µg/mL (Escherichia coli [4]): 41%
survival at 50 µg/mL (Escherichia coli [5]): 44%
survival at 50 µg/mL (Klebsiella pneumoniae [6]): 83%
survival at 50 µg/mL (Klebsiella pneumoniae [7]): > 90%
survival at 50 µg/mL (Klebsiella pneumoniae [8]): 51%
survival at 50 µg/mL (Klebsiella pneumoniae [9]): 77%
survival at 50 µg/mL (Klebsiella pneumoniae [10]): > 90%
survival at 50 µg/mL (Klebsiella pneumoniae [11]): > 90%
survival at 50 µg/mL (Klebsiella pneumoniae [12]): > 90%
survival at 50 µg/mL (Klebsiella pneumoniae [13]): > 90%
survival at 50 µg/mL (Klebsiella pneumoniae [14]): > 90%
survival at 50 µg/mL (Klebsiella pneumoniae [15]): > 90%
survival at 50 µg/mL (Klebsiella pneumoniae [16]): 68%
survival at 50 µg/mL (Klebsiella pneumoniae [17]): > 90%
Drug uptake (Klebsiella pneumoniae [18]): 40 pmol
Drug uptake (Klebsiella pneumoniae [19]): 60 pmol
Drug uptake (Escherichia coli [20]): 180 pmol
Drug uptake (Escherichia coli [21]): 260 pmol
Drug uptake (Escherichia coli [22]): 80 pmol
Drug uptake (Klebsiella pneumoniae [23]): 1.3%
Drug uptake (Klebsiella pneumoniae [24]): 1.96%
Drug uptake (Escherichia coli [25]): 5.87%
Drug uptake (Escherichia coli [26]): 7.53%
MIC50 (Klebsiella pneumoniae [27]): >100%
Drug uptake (Escherichia coli [28]): 2.61%
MIC50 (Escherichia coli [29]): > 100 µg/mL
MIC50 (Escherichia coli [30]): > 100 µg/mL
MIC50 (Escherichia coli [31]): > 100 µg/mL
MIC50 (Escherichia coli [32]): >100%
MIC50 (Escherichia coli [33]): > 100 µg/mL
MIC50 (Escherichia coli [34]): > 100 µg/mL
MIC50 (Escherichia coli [35]): > 100 µg/mL
MIC50 (Escherichia coli [36]): > 100 µg/mL
MIC50 (Escherichia coli [37]): > 100 µg/mL
MIC50 (Staphylococcus aureus [38]): 50 µg/mL (≈ 53.6 µM)
survival at 50 µg/mL (Staphylococcus aureus [39]): 66%
survival at 50 µg/mL (Escherichia coli [40]): > 90%
survival at 50 µg/mL (Escherichia coli [41]): > 90%
survival at 50 µg/mL (Escherichia coli [42]): > 90%
survival at 50 µg/mL (Escherichia coli [43]): > 90%
survival at 50 µg/mL (Escherichia coli [44]): > 90%
survival at 50 µg/mL (Escherichia coli [45]): > 90%
survival at 50 µg/mL (Escherichia coli [46]): > 90%
survival at 50 µg/mL (Escherichia coli [47]): > 90%
survival at 50 µg/mL (Escherichia coli [48]): > 90%
survival at 50 µg/mL (Escherichia coli [49]): > 90%
survival at 50 µg/mL (Escherichia coli [50]): > 90%
survival at 50 µg/mL (Escherichia coli [51]): > 90%
survival at 50 µg/mL (Escherichia coli [52]): 9%
MIC50 (Klebsiella pneumoniae [53]): 50 µg/mL (≈ 53.6 µM)
MIC50 (Escherichia coli [54]): 3.12 µg/mL (≈ 3.35 µM)
MIC50 (Escherichia coli [55]): 0.78 µg/mL (≈ 0.837 µM)
MIC50 (Escherichia coli [56]): 25 µg/mL (≈ 26.8 µM)
MIC50 (Escherichia coli [57]): 12 µg/mL (≈ 12.9 µM)
MIC50 (Escherichia coli [58]): 12 µg/mL (≈ 12.9 µM)
MIC50 (Klebsiella pneumoniae [59]): 100 µg/mL (≈ 107 µM)
MIC50 (Klebsiella pneumoniae [60]): > 100 µg/mL
MIC50 (Klebsiella pneumoniae [61]): 25 µg/mL (≈ 26.8 µM)
MIC50 (Klebsiella pneumoniae [62]): 50 µg/mL (≈ 53.6 µM)
